From PMC6572189, “Functional Fragments of AIMP1-Derived Peptide (AdP) and Optimized Hydrosol for Their Topical Deposition by Box-Behnken Design” (Molecules, 2019)

Key:
[1] = test system: Foreskin fibroblasts (HFF-1); assay: Fibroblast proliferation assay (CCK-8); assay type: cell-based; conditions: Fr3 0.1 μg/mL versus EGF 1 μg/mL; HFF-1 foreskin fibroblasts, 48 h, CCK-8 assay
Protocol: (§1) Figure 1 Fibroblast-activating (FA) and melanin-inhibiting (MI) domain mapping of AIMP1-derived peptide (AdP): (a) Foreskin fibroblasts were treated with EGF (1 μg/mL), AdP (0.1 μg/mL), and fragments of AdP (Fr1–Fr6; 0.1 μg/mL). After 24 h incubation, procollagen type I was determined in cultured media by ELISA; (b) after 48 h incubation, CCK8-assay was performed to monitor the proliferation of foreskin fibroblasts; (c) melanocytes, pre-treated with α-MSH (0.5 μM), were treated with albutin (At, 10 μM), AdP (1 μg/mL) and fragments of AdP (Fr1–Fr6, 1 μg/mL). After 48 h incubation, intracellular melanin was measured.
Foreskin fibroblast cells (HFF-1; 3 × 10^3 cells/well) were seeded into 96-well plate and cultivated. Cells were replaced with serum-free media and then treated with AdP, hEGF, and fragments of AdP for 48 h. Cell proliferation was determined CCK-8 assay (Dojindo, Kumamoto, Japan) in accordance with the manufacturer instructions. Proliferation was normalized by the proliferation of control group.

[2] = test system: keratinocytes (HaCaT cells); assay: Cytotoxicity test (CCK-8); assay type: cell-based; conditions: 10 or 100 μg/mL (up to 100 μg/mL), 24 h, CCK-8 assay, n = 3
Protocol: (§2) Figure 2 Non-cytotoxicity and non-immunogenicity of FA-AdP and MI-AdP: (a) To test cytotoxicity of FA-AdP and MI-AdP, keratinocytes (HaCaT cells) were incubated with doxorubicin (Dox, 10 μM), AdP (100 μg/mL), FA-AdP (10 or 100 μg/mL), and MI-AdP (10 or 100 μg/mL). After 24 h incubation, cytotoxicity was determined by CCK-8 assay; (b) for the immunogenicity test, monocytes (THP-1 cells) were used. After 12 h incubation with LPS (50 ng/mL), AdP (100 μg/mL), FA-AdP (10 or 100 μg/mL), and MI-AdP (10 or 100 μg/mL), the TNF-α level was measured in cultured media by ELISA.
(§3) The safety of FA-AdP and MI-AdP was verified in terms of cytotoxicity and immunogenicity. To test the cytotoxicity of the peptides, keratinocytes (HaCaT; 3 × 10^3 cells/well) were seeded into 96-well plate and cultivated. Cells were incubated with doxorubicin (Dox, 10 μM), AdP (100 μg/mL), FA-AdP (10 or 100 μg/mL), or MI-AdP (10 or 100 μg/mL). After 24 h incubation, cytotoxicity was determined by CCK-8 assay (Dojindo) according to the manufacturer’s manual. The immunogenicity of the peptides was evaluated by performing TNF-α ELISA. THP-1 cells (5 × 10^4 cells/well) were seeded on a 24-well plate. Cells were pre-incubated with 1% FBS containing media for 6 h. […] TNF-α amount in conditioned media was assessed by human TNF-α ELISA kit (BD Bioscience, San Jose, CA, USA) in accordance with the manufacturer instructions. […]

[3] = test system: Foreskin fibroblasts (HFF-1); assay: Collagen ELISA (procollagen type I in culture media); assay type: cell-based; conditions: Fr3 0.1 μg/mL versus EGF 1 μg/mL, HFF-1 foreskin fibroblasts, 24 h
Protocol: as §1
Foreskin fibroblast cells (HFF-1; 5 × 10^4 cells/well) were seeded at a 24-well culture plate. Before peptide treatment, cells were pre-incubated with serum-free DMEM media for 6 h. Cells were treated with AdP, hEGF (Sigma-Aldrich, St. Louis, MO, USA) and fragments of AdP for 24 h. After 24 h treatment, media were harvested for collagen ELISA assay. Procollagen type I in the culture media was determined by Procollagen type I ELISA kit (Takara, Kusatsu, Japan) in accordance with the manufacturer instructions. Procollagen type I amount in the media was normalized by the Procollagen type I amount of control group.

[4] = test system: monocytes (THP-1 cells); assay: Immunogenicity test (TNF-α ELISA); assay type: cell-based, human; conditions: 10 or 100 μg/mL, 12 h, TNF-α ELISA of cultured media, normalized to control, n = 3
Protocol: as §2, §3

[5] = test system: Melanocytes (B16F10); assay: Measurement of intracellular melanin in α-MSH induced melanocytes; assay type: cell-based; conditions: α-MSH 0.5 μM, 48 h
Protocol: as §1
Melanocytes (B16F10; 1 × 10^5 cells/well) were seeded into 6-well plate and cultivated. To induce melanin synthesis, α-MSH (0.5 μM), melanin inducer, was used. AdP and fragments of AdP were treated with α-MSH (0.5 μM) for 48 h. Intracellular melanin and tyrosinase activity were monitored as previously reported. Briefly, melanocytes (1 × 10^5 cells,) were lysed with 1 N NaOH at 70 °C for 1 h. Intracellular melanin was determined in lysed samples by 490 nm wavelength absorbance using microplate reader (Synergy 2, BioTek, Winooski, VM, USA).

**Q.** How did the “fibroblast proliferation, more potent than EGF” value [1] turn out when “Fr3: 14–28 residue fragment of AIMP1; fibroblast-activating domain of AdP (KGAEADQIIEYLKQQ; UniProt Q12904 14-28, looked up, fragment)” was run?
**A.** The value was 10%.

**Q.** What about the cytotoxicity in keratinocytes [2] of the same substance?
**A.** Its cytotoxicity in keratinocytes is “no cytotoxicity”.

**Q.** What about the “collagen induction, more potent than EGF” value [3] of the same substance?
**A.** Its value is 15%.

**Q.** And the “TNF-α level compared with that of the control group” value [4]?
**A.** Its value is “no significant difference”.

**Q.** Which results are given for “Fr4: 18–32 residue fragment of AIMP1; melanocyte-inhibiting domain of AdP (ADQIIEYLKQQVSLL; UniProt Q12904 18-32, looked up, fragment)”?
**A.** inhibition effect on melanin synthesis, higher than albutin ([5]; Fr4 1 μg/mL versus albutin 10 μM): 35%; inhibition of melanin synthesis induced by α-MSH, compared with AdP ([5]; 1 μg/mL, intracellular melanin by absorbance at 490 nm, mean n = 3, versus AdP 1 μg/mL): comparable inhibition; cytotoxicity in keratinocytes [2]: no cytotoxicity; TNF-α level compared with that of the control group [4]: no significant difference
